Reference: ChEMBL document CHEMBL1909046, “DrugMatrix in vitro pharmacology data”

Tests used:
Neutrophil elastase = molecular target: T1, Neutrophil elastase (Homo sapiens, UniProt P08246); assay type: tissue-based;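 further: inhibition of neutrophil elastase enzyme activity, measured with a p-nitroanilide-linked peptide substrate; in other assays of this panel Not Active means under 50% inhibition at 10 µM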
T1 sequence (P08246 whole entry): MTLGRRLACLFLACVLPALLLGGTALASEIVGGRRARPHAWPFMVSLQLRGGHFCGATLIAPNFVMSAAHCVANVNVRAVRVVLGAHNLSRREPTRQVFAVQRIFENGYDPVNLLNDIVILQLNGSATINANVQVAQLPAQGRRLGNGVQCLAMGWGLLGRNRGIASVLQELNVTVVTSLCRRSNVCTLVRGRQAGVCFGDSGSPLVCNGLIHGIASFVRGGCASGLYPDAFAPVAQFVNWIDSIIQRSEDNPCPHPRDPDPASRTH

[1] = DRUGMATRIX: Tumor Necrosis Factor (TNF), Non-Selective radioligand binding (ligand: [125I] TNF-alpha); assay type: cell membranes, Membrane; settings: u-937; Not Active = under 50% inhibition at 10 µM
[2] = DRUGMATRIX: Serotonin (5-Hydroxytryptamine) 5-HT3 radioligand binding (ligand: [3H] GR-65630); assay type: cell membranes, Membrane; settings: hek293; Not Active = under 50% inhibition at 10 µM
[3] = molecular target: Voltage-gated inwardly rectifying potassium channel KCNH2 (Homo sapiens, UniProt Q12809); settings: hek293; further: in other assays of this panel Not Active means under 50% inhibition at 10 µM
Sequence of Voltage-gated inwardly rectifying potassium channel KCNH2 (Q12809 whole entry): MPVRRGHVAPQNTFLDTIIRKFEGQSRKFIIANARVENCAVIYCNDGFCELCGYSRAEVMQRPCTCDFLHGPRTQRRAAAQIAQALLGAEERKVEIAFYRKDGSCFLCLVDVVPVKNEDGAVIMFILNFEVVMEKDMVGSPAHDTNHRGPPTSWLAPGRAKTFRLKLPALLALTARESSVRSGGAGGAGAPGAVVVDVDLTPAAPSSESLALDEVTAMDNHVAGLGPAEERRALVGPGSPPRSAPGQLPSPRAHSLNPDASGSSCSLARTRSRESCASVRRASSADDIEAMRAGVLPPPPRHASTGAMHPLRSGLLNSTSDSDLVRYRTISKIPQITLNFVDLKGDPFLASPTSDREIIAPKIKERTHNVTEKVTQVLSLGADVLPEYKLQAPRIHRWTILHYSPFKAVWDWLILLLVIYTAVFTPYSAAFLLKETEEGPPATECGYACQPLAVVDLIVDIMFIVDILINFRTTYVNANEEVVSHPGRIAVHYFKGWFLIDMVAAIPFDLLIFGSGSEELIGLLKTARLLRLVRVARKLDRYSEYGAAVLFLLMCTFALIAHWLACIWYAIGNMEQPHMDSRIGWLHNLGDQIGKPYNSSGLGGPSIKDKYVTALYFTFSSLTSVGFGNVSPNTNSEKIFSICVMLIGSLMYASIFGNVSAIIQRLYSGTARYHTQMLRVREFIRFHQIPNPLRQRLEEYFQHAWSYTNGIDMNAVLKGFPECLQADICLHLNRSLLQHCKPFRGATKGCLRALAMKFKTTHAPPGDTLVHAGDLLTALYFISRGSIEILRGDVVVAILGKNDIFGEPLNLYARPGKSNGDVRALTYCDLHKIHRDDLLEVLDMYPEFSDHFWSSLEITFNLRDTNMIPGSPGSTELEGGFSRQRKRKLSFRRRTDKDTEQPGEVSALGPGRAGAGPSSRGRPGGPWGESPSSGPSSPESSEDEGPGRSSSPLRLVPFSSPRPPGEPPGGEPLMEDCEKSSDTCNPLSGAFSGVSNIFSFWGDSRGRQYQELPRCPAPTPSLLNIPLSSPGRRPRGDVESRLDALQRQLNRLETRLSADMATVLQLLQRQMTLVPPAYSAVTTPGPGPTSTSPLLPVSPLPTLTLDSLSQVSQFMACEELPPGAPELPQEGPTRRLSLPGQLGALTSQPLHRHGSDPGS

Vasopressin V1a receptor = Vasopressin V1a receptor (Homo sapiens, UniProt P37288); assay type: cell membranes, Membrane; settings: hek293; further: in other assays of this panel Not Active means under 50% inhibition at 10 µM
Sequence of Vasopressin V1a receptor (P37288 whole entry): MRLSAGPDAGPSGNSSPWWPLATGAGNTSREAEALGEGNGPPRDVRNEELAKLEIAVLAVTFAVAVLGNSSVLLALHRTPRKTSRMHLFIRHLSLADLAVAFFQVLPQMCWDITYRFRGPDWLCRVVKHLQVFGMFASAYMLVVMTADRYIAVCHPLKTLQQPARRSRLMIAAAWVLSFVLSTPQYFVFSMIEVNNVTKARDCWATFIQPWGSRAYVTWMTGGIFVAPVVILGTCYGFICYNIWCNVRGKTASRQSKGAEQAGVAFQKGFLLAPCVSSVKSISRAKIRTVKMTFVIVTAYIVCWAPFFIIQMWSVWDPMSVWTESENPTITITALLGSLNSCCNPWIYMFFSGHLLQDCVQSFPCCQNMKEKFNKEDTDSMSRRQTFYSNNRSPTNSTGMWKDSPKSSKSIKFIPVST

[4] = molecular target: 5-hydroxytryptamine receptor 1B (Rattus norvegicus, UniProt P28564); assay type: cell membranes, Wistar, Cerebral cortex, Membrane; further: in other assays of this panel Not Active means under 50% inhibition at 10 µM
Sequence of 5-hydroxytryptamine receptor 1B (P28564 whole entry): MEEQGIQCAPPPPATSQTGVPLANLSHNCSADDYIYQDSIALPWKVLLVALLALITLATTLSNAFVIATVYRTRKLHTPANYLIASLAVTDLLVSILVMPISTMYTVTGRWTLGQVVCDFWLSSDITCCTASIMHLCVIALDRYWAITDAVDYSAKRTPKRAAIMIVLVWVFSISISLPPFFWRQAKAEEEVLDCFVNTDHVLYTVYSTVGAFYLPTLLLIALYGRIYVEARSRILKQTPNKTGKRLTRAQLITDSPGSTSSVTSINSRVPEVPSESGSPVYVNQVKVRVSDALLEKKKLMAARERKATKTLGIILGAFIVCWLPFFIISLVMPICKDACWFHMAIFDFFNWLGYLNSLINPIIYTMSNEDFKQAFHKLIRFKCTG

[5] = molecular target: T2, Polyunsaturated fatty acid lipoxygenase ALOX15 (Oryctolagus cuniculus, UniProt P12530); experiment: biochemical; assay type: tissue-based, Reticulocytes
T2 sequence (P12530 whole entry): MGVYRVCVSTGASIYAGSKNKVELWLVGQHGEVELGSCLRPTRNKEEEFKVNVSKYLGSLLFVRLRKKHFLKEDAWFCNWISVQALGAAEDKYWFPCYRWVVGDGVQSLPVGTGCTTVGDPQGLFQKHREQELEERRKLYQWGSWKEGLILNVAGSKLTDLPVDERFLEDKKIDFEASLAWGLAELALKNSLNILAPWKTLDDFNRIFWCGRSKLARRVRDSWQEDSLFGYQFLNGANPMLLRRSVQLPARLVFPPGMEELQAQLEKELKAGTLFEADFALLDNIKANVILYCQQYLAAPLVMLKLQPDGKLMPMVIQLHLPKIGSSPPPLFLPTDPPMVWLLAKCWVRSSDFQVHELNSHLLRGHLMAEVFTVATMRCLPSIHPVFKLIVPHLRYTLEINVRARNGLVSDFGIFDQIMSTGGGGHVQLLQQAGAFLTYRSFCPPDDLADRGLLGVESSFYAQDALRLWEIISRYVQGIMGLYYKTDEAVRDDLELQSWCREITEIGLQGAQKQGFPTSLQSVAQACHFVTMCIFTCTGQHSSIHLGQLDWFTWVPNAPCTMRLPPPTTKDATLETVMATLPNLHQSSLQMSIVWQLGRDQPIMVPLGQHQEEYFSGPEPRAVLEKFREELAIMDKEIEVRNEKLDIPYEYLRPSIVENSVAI

[6] = molecular target: Prostaglandin G/H synthase 1 (Homo sapiens, UniProt P23219); experiment: biochemical; assay type: tissue-based, Platelet
Sequence of Prostaglandin G/H synthase 1 (P23219 whole entry): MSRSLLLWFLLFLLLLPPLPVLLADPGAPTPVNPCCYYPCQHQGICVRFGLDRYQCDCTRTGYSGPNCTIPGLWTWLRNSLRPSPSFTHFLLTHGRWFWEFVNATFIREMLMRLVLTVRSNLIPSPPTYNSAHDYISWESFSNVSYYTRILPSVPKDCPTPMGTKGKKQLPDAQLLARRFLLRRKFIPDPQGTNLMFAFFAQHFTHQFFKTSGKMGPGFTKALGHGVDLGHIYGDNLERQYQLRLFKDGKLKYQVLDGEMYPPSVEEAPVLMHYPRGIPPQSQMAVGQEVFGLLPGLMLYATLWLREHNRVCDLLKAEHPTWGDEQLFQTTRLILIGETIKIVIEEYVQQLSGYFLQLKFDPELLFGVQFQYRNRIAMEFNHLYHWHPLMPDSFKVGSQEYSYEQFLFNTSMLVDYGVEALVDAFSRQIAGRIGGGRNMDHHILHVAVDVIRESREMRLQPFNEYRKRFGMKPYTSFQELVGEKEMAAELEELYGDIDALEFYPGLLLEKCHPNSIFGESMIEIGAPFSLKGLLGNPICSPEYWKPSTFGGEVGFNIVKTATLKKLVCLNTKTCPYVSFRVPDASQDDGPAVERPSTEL

Row | Compound | IC50 (Neutrophil elastase) | IC50 [1] | Ki [1] | IC50 [2] | Ki [2] | IC50 [3] | Ki [3] | IC50 (Vasopressin V1a receptor) | IC50 [4] | IC50 ([5]; reticulocytes) | IC50 ([6]; platelet) | IC50 ([5]; read-out: IC50) | IC50 ([6]; read-out: IC50) | Ki (Neutrophil elastase) | Ki (Vasopressin V1a receptor) | Ki [4] | Ki ([5]; reticulocytes) | Ki ([6]; platelet)
1 | CC(C)NCC(O)COc1cccc2[nH]ccc12 (stereo not given) [PINDOLOL] | Not Active | Not Active | Not Active | Not Active | Not Active | Not Active | Not Active | Not Active | Not Active | Not Active | Not Active | – | – | – | – | – | – | –
2 | CCn1cc(C(=O)O)c(=O)c2cnc(N3CCCC3)nc21 [PIROMIDIC ACID] | Not Active | Not Active | Not Active | Not Active | Not Active | Not Active | Not Active | Not Active | Not Active | Not Active | Not Active | – | – | – | – | – | – | –
3 | C[n+]1ccccc1/C=N/O.[Cl-] [PRALIDOXIME CHLORIDE] | Not Active | Not Active | Not Active | Not Active | Not Active | Not Active | Not Active | Not Active | Not Active | Not Active | Not Active | – | – | – | – | – | – | –
4 | C[C@]12C=CC(=O)C=C1CC[C@@H]1[C@@H]2[C@@H](O)C[C@@]2(C)[C@H]1CC[C@]2(O)C(=O)CO [PREDNISOLONE] | Not Active | Not Active | Not Active | Not Active | Not Active | Not Active | Not Active | Not Active | Not Active | Not Active | Not Active | – | – | – | – | – | – | –
5 | CC(=O)[C@H]1[C@H](C#N)C[C@H]2[C@@H]3CC=C4C[C@@H](O)CC[C@]4(C)[C@H]3CC[C@@]21C [PREGNENOLONE CARBONITRILE] | Not Active | Not Active | Not Active | Not Active | Not Active | Not Active | Not Active | Not Active | Not Active | Not Active | Not Active | – | – | – | – | – | – | –
6 | CCCN(CCC)S(=O)(=O)c1ccc(C(=O)O)cc1 [PROBENECID] | Not Active | Not Active | Not Active | Not Active | Not Active | Not Active | Not Active | Not Active | Not Active | Not Active | Not Active | – | – | – | – | – | – | –
7 | CCCOc1ccc(C(=O)OCCN(CC)CC)cc1N [PROPARACAINE] | Not Active | Not Active | Not Active | Not Active | Not Active | Not Active | Not Active | Not Active | Not Active | Not Active | Not Active | – | – | – | – | – | – | –
8 | CC(C)c1cccc(C(C)C)c1O [PROPOFOL] | Not Active | Not Active | Not Active | Not Active | Not Active | Not Active | Not Active | Not Active | Not Active | – | – | 7.6 µM | 3.83 µM | – | – | – | – | –
9 | C[C@@H]1O[C@@H](O[C@@H]2C=C3CC[C@@H]4[C@H](CC[C@]5(C)[C@@H](c6ccc(=O)oc6)CC[C@]45O)[C@@]3(C)CC2)[C@H](O)[C@H](O)[C@H]1O [PROSCILLARIDIN] | Not Active | Not Active | Not Active | Not Active | Not Active | Not Active | Not Active | Not Active | Not Active | Not Active | Not Active | – | – | – | – | – | – | –
10 | Oc1cccc(O)c1O [PYROGALLOL] | Not Active | Not Active | Not Active | Not Active | Not Active | Not Active | Not Active | Not Active | Not Active | – | Not Active | 2.11 µM | – | – | – | – | – | –
11 | AURANOFIN | Not Active | Not Active | Not Active | Not Active | Not Active | Not Active | Not Active | Not Active | Not Active | Not Active | Not Active | – | – | Not Active | Not Active | Not Active | Not Active | Not Active
12 | GADOPENTETATE DIMEGLUMINE | Not Active | Not Active | Not Active | Not Active | Not Active | Not Active | Not Active | Not Active | Not Active | Not Active | Not Active | – | – | Not Active | Not Active | Not Active | Not Active | Not Active
13 | GENTAMICIN | Not Active | Not Active | Not Active | Not Active | Not Active | Not Active | Not Active | Not Active | Not Active | Not Active | Not Active | – | – | Not Active | Not Active | Not Active | Not Active | Not Active
14 | GRAMICIDIN | Not Active | Not Active | Not Active | Not Active | Not Active | Not Active | Not Active | Not Active | Not Active | Not Active | Not Active | – | – | Not Active | Not Active | Not Active | Not Active | Not Active
15 | NYSTATIN | Not Active | Not Active | Not Active | Not Active | Not Active | Not Active | Not Active | Not Active | Not Active | Not Active | Not Active | – | – | Not Active | Not Active | Not Active | Not Active | Not Active
